Data set [1] concerns New Zealand White rabbits. As to the kind of experiment: Hepatobiliary scintigraphy, 99mTc-mebrofenin uptake after PVE (Example 5). The class given is in vivo, rabbit. As for the experimental part: Liver function was assessed using hepatobiliary scintigraphy (HBS) with ^99mTc-labeled (2,4,6 trimethyl-3-bromo) iminodiacetic acid (^99mTc-mebrofenin, Bridatec, GE Healthcare, Eindhoven, the Netherlands) at days −7, −1, +3 and +7. Rabbits (n=6 per treatment group) were anesthetized and positioned on an imaging table with the liver and heart positioned under a large field-of-view single photon emission computed tomography (SPECT/CT) camera (Siemens Symbia T16). Regions of interest were drawn around the left ventricle for blood pool readings, around the entire liver for total liver uptake, and around the caudal liver lobe (FIG. 10; the yellow region of interest (ROI) delineates the left ventricle, the red ROI the total liver and the pink ROI the caudal liver lobe; a marked decrease in cranial liver lobe activity and increase in caudal liver lobe activity was seen following portal vein embolization.). Per rabbit, a dose of 50 MBq ^99mTc-mebrofenin was administered via a lateral ear vein directly before the start of acquisition.
The geometric mean dataset of the anterior and posterior cameras was used for analysis. Hepatic ^99mTc-mebrofenin uptake rate was calculated as an increase of ^99mTc-mebrofenin uptake over two minutes, corrected for perfusion. Total liver uptake was represented by the total hepatic ^99mTc-mebrofenin uptake rate, and calculated as a percentage of the injected dose per minute. The fractional ^99mTc-mebrofenin uptake rate was calculated for the caudal liver lobe, based of distribution of segmental activity and was corrected for baseline measurements at t=−7 days.

Another data set has as its system Wistar rats. As to the kind of experiment: Liver regrowth after 70% partial hepatectomy in post-cholestatic rats (Example 6). Format: in vivo. From the text:
Seven days after BDL or sham operation, all rats were subjected to 70% PHx [DeGraaf 2011]. In all rBDL rats, intestinal bile flow was restored directly prior to PHx by removing the closed cannula tip and inserting the cannula into the duodenum. Animals in all treatment groups were put on regular chow after PHx. OCA treatment was continued after PHx until sacrifice. As depicted in Scheme 1, the study consisted of five experimental groups (n=4-6 animals per group per time point): control (sham), steatosis (MCD), cholestasis (rBDL), combined steatosis and cholestasis (rBDL+MCD), and cholestasis+OCA (rBDL+OCA).
At baseline (i.e., directly before PHx) and one to five days after PHx, animals were euthanized under isoflurane anesthesia by exsanguination. Blood samples were collected from the caval vein in heparin-anticoagulated vacutainers (BD, Franklin Lakes, N.J.) and centrifuged for 10 min (3000×g, 4° C.). In rBDL animals sacrificed at baseline, bile was aspirated with a syringe from the dilated extrahepatic bile duct, weighed, and stored at −80° C. The liver and ileum were excised, weighed, loafed, and either fixed in a 10% (vol/vol) neutralized formalin solution (J. T. Baker, Center Valley, Pa.), snap-frozen in liquid nitrogen and stored at −80° C., or collected in RNAlater (Qiagen, Venlo, the Netherlands) and stored at −20° C. Liver regrowth was calculated from the regenerated liver mass, and was expressed as percentage of total liver mass prior to PHx. The projected remnant liver mass was calculated using the weight of the resected liver segments, which represent 70% of the total liver mass. Dry liver weights were measured to correct for hepatic water content [Kloek 2010a].
After formalin fixation, liver specimens were dehydrated, paraffin-embedded, and stained with hematoxylin and eosin (H&E), the collagen type I and III stain picrosirius red, or the proliferation marker Ki67 [Marsman 2013]. Semi-quantitative analysis of H&E- and picrosirius red-stained liver histology was performed by an experienced hepatopathologist (JV) blinded to the experimental groups using a scoring system detailed in Table 1. Ki67-positive hepatocyte nuclei were manually counted by two observers (RFG and PBO) in four randomly-selected microscopic fields at 200× magnification.

The structures appear in SMILES notation.

Consider `CC[C@H]1[C@@H](O)[C@@H]2[C@H](CC[C@]3(C)[C@@H]([C@H](C)CCC(=O)O)CC[C@@H]23)[C@@]2(C)CC[C@@H](O)C[C@@H]12` [Compound 1, 3α,7α-dihydroxy-6α-ethyl-5β-cholanic acid], for which the “increase in contribution of caudal liver lobe (CLF share) to total liver mebrofenin uptake” value in data set [1] (3 days after PVE) came to 44.5±5.4%. Also, the “increase in caudal liver function relative to vehicle” value in data set [1] (day +3) worked out at 1.2 fold. Further, in data set [1] (days −1, +3, +7, N=6), the “total liver uptake of mebrofenin” value was “remained stable in both groups”. For the same compound, the “dry weight of the remnant liver” value in the data set on Wistar rats (at the time of PHx, vs other two groups) is “higher”. Moreover, the “number of Ki67+ hepatocytes” value in the data set on Wistar rats (day one after PHx) is recorded as “highest”. Moreover, in the data set on Wistar rats (regeneration phase), the mortality result was “no mortality”. Also, the “liver regrowth after 70% PHx” value in the data set with Wistar rats (vs untreated rBDL and control rats) was “stalled”.

The values are drawn from patent publication US10548906B2, “Methods of promoting hepatic regeneration” (Intercept Pharmaceuticals, Inc., priority 2015, dated 2020).
